Results taken from US20240059661A1, “SOLID STATE FORMS OF 2-(3,5-DICHLOROPHENYL)-1,3-BENZOXAZOLE-6-CARBOXYLIC ACID OR ITS PHARMACEUTICALLY ACCEPTABLE SALTS AND POLYMORPHS THEREOF” (CIPLA LIMITED, priority 2021, published 2024).

Experiments:
[1] = Forced degradation study (solid state stability) of Tafamidis Form C1; type: physicochemical
Excerpt: Forced degradation is synonymous with stress testing and purposeful degradation. Purposeful degradation can be a useful tool to predict the stability of a drug substance or a drug product with effects on purity, potency, and safety. It is imperative to know the impurity profile and behavior of a drug substance under various stress conditions. Forced degradation also plays an important role in the development of analytical methods, setting specifications, and design of formulations under the quality-by-design (QbD) paradigm. The nature of the stress testing depends on the individual drug substance and the type of drug product (e.g., solid oral dosage, lyophilized powders, and liquid formulations) involved.
A forced degradation study was performed to generate potential degradation products and assess stability liabilities. Tafamidis form C1 prepared as per the present disclosure was subjected to forced degradation study with below specified conditions. […] The samples were analysed at pre-determined time intervals for PXRD, HPLC purity and water content. […] The forced degradation results for Tafamidis Form C1 are tabulated below in Table 1.

[2] = Indicative stability of Tafamidis Form C1 on storage up to 6 months; type: physicochemical
Procedure: The stability of Tafamidis form C1 prepared as per the present disclosure was studied by storing the samples at 2-8° C., 25° C./60% RH; and 40° C./75% RH storage conditions upto 6 months. The samples were analysed for PXRD, HPLC purity and water content at pre-determined time intervals of 1M, 2M, 3M and 6M.
The stability data collected after 6 months of storage are tabulated below in Table 2.

Description ([1]; 0 D, Initial): off-white powder
HPLC Purity ([1]; 0 D, Initial): 99.98
PXRD ([1]; 0 D, Initial): Form C1
Water content KF ([1]; 0 D, Initial): 0.57%
Description ([1]; 5 D, 60°C/80% RH): off-white powder
HPLC Purity ([1]; 5 D, 60°C/80% RH): 99.97
Water content KF ([1]; 5 D, 60°C/80% RH): 0.62%
Description ([1]; 6 Hours (DHS), 105° C.): off-white powder
HPLC Purity ([1]; 6 Hours (DHS), 105° C.): 99.98
Description ([1]; 6 Hours, 120° C.): off-white powder
HPLC Purity ([1]; 6 Hours, 120° C.): 99.99
Description ([1]; 7 D, 25° C./60% RH Closed cup): off-white powder
HPLC Purity ([1]; 7 D, 25° C./60% RH Closed cup): 99.98
Water content KF ([1]; 7 D, 25° C./60% RH Closed cup): 0.42%
Description ([1]; 7 D, 25° C./60% RH Open cup): off-white powder
HPLC Purity ([1]; 7 D, 25° C./60% RH Open cup): 99.98
Water content KF ([1]; 7 D, 25° C./60% RH Open cup): 0.48%
Description ([1]; 7 D, 40° C./75% RH Closed cup): off-white powder
HPLC Purity ([1]; 7 D, 40° C./75% RH Closed cup): 99.98
Water content KF ([1]; 7 D, 40° C./75% RH Closed cup): 0.45%
Description ([1]; 7 D, 40° C./75% RH Open cup): off-white powder
HPLC Purity ([1]; 7 D, 40° C./75% RH Open cup): 99.98
Water content KF ([1]; 7 D, 40° C./75% RH Open cup): 0.72%
Description ([1]; 10 TORR): off-white powder
HPLC Purity ([1]; 10 TORR): 99.99
degradation under stress conditions ([1]; any of the stress conditions): did not show any degradation
change with respect to PXRD, HPLC purity and water content ([1]; forced degradation, all conditions of Table 1): no significant change
Description ([2]; 0, Initial): Off-white colour
HPLC Purity ([2]; 0, Initial): 99.99
PXRD ([2]; 0, Initial): Form C1
Water content KF ([2]; 0, Initial): 0.34%
Description ([2]; 1 month, 2-8° C.): Off-white colour
HPLC Purity ([2]; 1 month, 2-8° C.): 99.98
Water content KF ([2]; 1 month, 2-8° C.): 0.88%
Description ([2]; 1 month, 25° C./60% RH): Off-white colour
HPLC Purity ([2]; 1 month, 25° C./60% RH): 99.98
Water content KF ([2]; 1 month, 25° C./60% RH): 0.85%
Description ([2]; 1 month, 40° C./75% RH): Off-white colour
HPLC Purity ([2]; 1 month, 40° C./75% RH): 99.99
Water content KF ([2]; 1 month, 40° C./75% RH): 0.8%
Description ([2]; 2 months, 2-8° C.): Off-white colour
HPLC Purity ([2]; 2 months, 2-8° C.): 99.98
Water content KF ([2]; 2 months, 2-8° C.): 0.63%
Description ([2]; 2 months, 25° C./60% RH): Off-white colour
HPLC Purity ([2]; 2 months, 25° C./60% RH): 99.98
Water content KF ([2]; 2 months, 25° C./60% RH): 0.68%
Description ([2]; 2 months, 40° C./75% RH): Off-white colour
HPLC Purity ([2]; 2 months, 40° C./75% RH): 99.98
Water content KF ([2]; 2 months, 40° C./75% RH): 0.78%
Description ([2]; 3 months, 2-8° C.): Off-white colour
HPLC Purity ([2]; 3 months, 2-8° C.): 99.98
Water content KF ([2]; 3 months, 2-8° C.): 1.02%
Description ([2]; 3 months, 25° C./60% RH): Off-white colour
HPLC Purity ([2]; 3 months, 25° C./60% RH): 99.98
Water content KF ([2]; 3 months, 25° C./60% RH): 0.92%
Description ([2]; 3 months, 40° C./75% RH): Off-white colour
HPLC Purity ([2]; 3 months, 40° C./75% RH): 99.98
Water content KF ([2]; 3 months, 40° C./75% RH): 0.85%
Description ([2]; 6 months, 2-8° C.): Off-white colour
HPLC Purity ([2]; 6 months, 2-8° C.): 99.98
Water content KF ([2]; 6 months, 2-8° C.): 0.79%
Description ([2]; 6 months, 25° C./60% RH): Off-white colour
HPLC Purity ([2]; 6 months, 25° C./60% RH): 99.98
Water content KF ([2]; 6 months, 25° C./60% RH): 0.61%
Description ([2]; 6 months, 40° C./75% RH): Off-white colour
HPLC Purity ([2]; 6 months, 40° C./75% RH): 99.98
Water content KF ([2]; 6 months, 40° C./75% RH): 0.65%
change with respect to PXRD, HPLC purity and water content ([2]; all the storage conditions (2-8° C., 25° C./60% RH, 40° C./75% RH) up to 6 months): no significant change
SMILES: O=C(O)c1ccc2nc(-c3cc(Cl)cc(Cl)c3)oc2c1 [Form C1, 2-(3,5-Dichlorophenyl)-1,3-benzoxazole-6-carboxylic acid]
